This is an account of results in patent US20240301156A1, “FOAMABLE RESIN COMPOSITION, FOAM BODY, METHOD FOR PRODUCING FOAM BODY, AND FOAMABLE CURING AGENT” (MITSUBISHI GAS CHEMICAL COMPANY, INC., priority 2021, published 2024).

Series [1] is described as follows: Maximum carbon dioxide (CO2) release temperature of amine compound (DSC). The format is physicochemical. To be noted: amine left in air at 23° C., 50% RH for 24 hours; DSC 23 to 250° C., 10° C./minute, nitrogen. The protocol:
The amine compound (a1) with carbon dioxide absorbed is heated at a heating rate of 10° C./minute from 23° C. to 250° C., and the temperature at which the amount of heat absorbed due to desorption of carbon dioxide reaches the maximum is measured, and the temperature is defined as the maximum carbon dioxide release temperature. In this regard the amine compound (a1) with carbon dioxide absorbed may be prepared by leaving 5 mmol of the amine compound (a1) to stand in air at 23° C. and 50% RH for 24 hours.
A carbon dioxide detector and a Petri dish were placed in an openable desiccator (inner dimension: 370 mm×260 mm×272 mm). Subsequently the amine compound (5 mmol) was added to the Petri dish in the desiccator and the door was immediately closed to leave the amine compound to stand in the desiccator in an air environment at 23° C. and 50% RH for 24 hours. The initial concentration of carbon dioxide was adjusted to about 400 ppm.
(§1) Then the amine compound was removed from the desiccator to give an amine compound with carbon dioxide absorbed. The maximum carbon dioxide release temperature of the amine compound with carbon dioxide absorbed was measured by subjecting the amine compound to DSC as described below. First, differential scanning calorimetry of the amine compound was performed under conditions of a temperature range of 23 to 250° C., a heating rate of 10° C./minute and a nitrogen atmosphere using a differential thermogravimeter (product name DTG-60 made by Shimadzu Corporation). The temperature at which the amount of heat absorbed due to the desorption of carbon dioxide was the maximum was calculated from the DSC curve obtained, and the temperature was determined as the maximum carbon dioxide release temperature of the amine compound.

Series [2] in a line: Maximum endothermic temperature of amine compound (DSC). The format is physicochemical. The settings on record: DSC 23 to 350° C., 10° C./minute, nitrogen; evaporation of the amine compound. How it is done:
The amine compound (a1) is heated at a heating rate of 10° C./minute from 23° C. to 350° C. and the temperature at which the amount of heat absorbed due to evaporation of the amine compound (a1) reaches the maximum is measured, and the temperature is defined as the maximum endothermic temperature of the amine compound (a1).
as §1, with “The” for “Then the amine compound was removed from the desiccator to give an amine compound with carbon dioxide absorbed. The”, “endothermic” for “carbon dioxide release”, “compound” for “compound with carbon dioxide absorbed”, “350°” for “250°”, “evaporation” for “desorption”, “the amine compound” for “carbon dioxide”

Series [3] in a line: Amine value of amine compound (JIS K7237-1995 titration). It is filed as physicochemical. To be noted: 0.1 N perchloric acid-acetic acid titration.
Method: The amine value was measured by the following measurement method according to JIS K7237-1995. • (1) 0.1 g of the amine compound was dissolved in 20 mL of acetic acid. • (2) The amine value was calculated by titrating the solution prepared in (1) above with 0.1 N perchloric acid-acetic acid solution using an automatic potentiometric titrator (AT-610 made by Kyoto Electronics Manufacturing Co., Ltd.) (Acid Dissociation Constant (pKa) of Amine Compound)
Series [4] in a line: Absorption of carbon dioxide into amine compound: percentage increase of mass. The format is physicochemical. To be noted: amine left to stand in air at 23° C. and 50% RH for a week. How it is done:
An amine compound, MXDA (40 mmol), was put in a container and left to stand in an air environment at 23° C. and 50% RH for a week. By doing so MXDA and carbon dioxide in the air were reacted to give a carbonate of MXDA. At that stage, to suppress uneven reaction, the container in which the amine compound was placed was shaken as necessary so as not to leave unreacted MXDA.
Next, increase of the mass of MXDA was measured and the percentage increase of the mass of the amine compound was calculated by the following equation.
Percentage increase of mass of amine compound [% by mass]=100×amount of increase of mass of amine compound (g)/(initial mass of amine compound (g)+amount of increase of mass of amine compound (g))

A short description of series [5]: Acid dissociation constant (pKa) of amine compound, acid-base titration. To be noted: purified water.
Method: (§2) The acid dissociation constant of the amine compound (a1) is measured by the following measurement method based on acid-base titration. • (1) 0.2 g of the amine compound (a1) is dissolved in 30 mL of purified water. • (2) The acid dissociation constant (pKa) is calculated by titrating the solution prepared in (1) above with 0.1 N perchloric acid-acetic acid solution using an automatic potentiometric titrator (e.g., AT-610 made by Kyoto Electronics Manufacturing Co., Ltd.).
(§3) The acid dissociation constant of the amine compound was measured by the following measurement method. • (1) 0.2 g of the amine compound was dissolved in 30 mL of purified water. • (2) The acid dissociation constant (pKa) was calculated by titrating the solution prepared in (1) above with 0.1 N perchloric acid-acetic acid solution using an automatic potentiometric titrator (AT-610 made by Kyoto Electronics Manufacturing Co., Ltd.).
(§4) The temperature in the measurement was 25±2° C.

Method for physchem: as §2, §3, §4

In the case of `NCC1CCCC(CN)C1` (centres unmarked) [1,3-BAC, 1,3-bis(aminomethyl)cyclohexane], in series [1], the “Maximum CO2 release temperature” value worked out at 125.7 °C. In series [2], this molecule gave a Maximum endothermic temperature of 160.9 °C. In addition, in series [3], the Amine value is given as 789 mg KOH/g. Also, the “Percentage increase of mass” value in series [4] stood at 25.9 % by mass.
For orientation: pKa means the pH at which an ionisable group is half protonated. In the case of `NCCN1CCNCC1` [AEP, N-(2-aminoethyl)piperazine], the “Maximum CO2 release temperature” value in series [1] stood at 81.9 °C. In series [2], this molecule had a Maximum endothermic temperature of 140.2 °C. The molecule further came in with an Amine value in series [3] of 1303 mg KOH/g. In addition, the “Percentage increase of mass” value in series [4] stood at 43.7 % by mass. Moreover, in series [5], the pKa worked out at 8.9.
Regarding `CC1(C)CC(N)CC(C)(CN)C1` (centres unmarked) [IPDA, isophoronediamine], in series [1], the “Maximum CO2 release temperature” value was determined as 114.4 °C. Further, in series [2], the Maximum endothermic temperature was 168.8 °C. In series [3], this molecule came in with an Amine value of 659 mg KOH/g. Further, the “Percentage increase of mass” value in series [4] is 23.5 % by mass. Further, the pKa in series [5] came out at 10.4.
In the case of `NCc1cccc(CN)c1` [MXDA, metaxylylenediamine], the “Maximum CO2 release temperature” value in series [1] was determined as 135.5 °C. The Maximum endothermic temperature in series [2] came out at 183.5 °C. In series [3], this molecule registered an Amine value of 824 mg KOH/g. Besides, the “Percentage increase of mass” value in series [4] is listed as 24.1 % by mass.
Turning to `NC1CCC(CC2CCC(N)CC2)CC1` (centres unmarked) [PACM, 4,4′-methylenebis(cyclohexylamine)], the “Maximum CO2 release temperature” value in series [1] turned out to be 53.0 °C. For the same molecule, the Maximum endothermic temperature in series [2] is 218.5 °C. Moreover, the Amine value in series [3] is 533 mg KOH/g. Further, the “Percentage increase of mass” value in series [4] was 12.2 % by mass. This molecule yielded a pKa in “physchem” of 10.3.
